Counter-ions that a name gives are not always drawn.
Tests used:
[1] = test system: acetylcholine levels in ventral hippocampus of male Wistar rats; test: Acetylcholine modulation in ventral hippocampus (microdialysis), test compound alone; format: in vivo, rat
From the text: Male Wistar rats (240-300 g body weight) were stereotaxically implanted with a microdialysis guide cannula in ventral hippocampus (AP: −5.2 mm, ML: +5.0 mm, DV: −3.8 mm) under isoflurane anesthesia. […] The rats were allowed to recover individually for four-five days in a round bottom Plexiglas bowl with free access to feed and water.
One day prior to the microdialysis experiment, rats were connected to a dual quartz lined two-channel liquid swivel (Instech, UK) on a counter balance lever arm, which allowed unrestricted movements of the animal. […] On the day of experiment, perfusion rate was changed to 1.2 μL/min and stabilization period of atleast 2 hours was maintained. […] Dialysate samples were collected for additional period of 6 h using CMA/170 refrigerated fraction collector.
All microdialysis data were plotted as percent change from mean dialysate basal concentrations with 100% defined as the average of five predose values. The AUC was calculated by trapezoidal rule using WinNonlin® (5.0.1 version, Pharsight Corp. CA). The statistical significance between the mean AUC values of treatment group with vehicle was calculated using Dunnett's multiple comparison test. For each treatment group, the percent increase in acetylcholine levels was compared to the vehicle group using two-way analysis of variance (time and treatment), followed by Bonferroni post test. […]

[2] = Rodent pharmacokinetic study for assessment of drug interaction; details: compound 1 3 mg/kg, p.o., donepezil 1 mg/kg, s.c.; male Wistar rats
Procedure: Male Wistar rats (260±50 grams) were used as experimental animals. Animals were housed individually in polypropylene cages and acclimatized for three days prior to study.
Blood was collected through retro orbital plexus under isoflurane anesthesia. Collected blood was transferred into a pre-labeled eppendorf tube containing 10 μL of sodium heparin as an anticoagulant. Blood samples were collected at following time points: 0.33, 0.66, 1, 1.5, 2, 4, 6, 8 and 24 hours post dose. Blood was centrifuged at 4000 rpm for 10 minutes. Plasma was separated and stored frozen at −80 ° C. until analysis. […] The test compounds were quantified in the calibration range around 0.05-100 ng/mL in plasma. Study samples were analyzed using calibration samples in the batch and quality control samples spread across the batch.
Pharmacokinetic parameters Cmax, Tmax and AUClast were calculated by non-compartmental model using Phoenix WinNonlin 6.4.0 version Software package.

[3] = target: human recombinant 5-HT2A receptor (Homo sapiens (Human), UniProt P28223); test: Determination of Ki value at 5-HT2A receptor (radioligand binding, [3H]-Ketanserine); details: [3H]-Ketanserine 1.75 nM, average of three independent experiments
From the text: The reaction was terminated by rapid vacuum filtration onto the glass fiber filters.

[4] = test system: theta power in dorsal hippocampus of anesthetized male Wistar rats; test: Evoked theta modulation in dorsal hippocampus of anesthetized male Wistar rats; format: in vivo, rat; details: donepezil 0.3 mg/kg, i.v. alone
Procedure: Additionally one electrode was implanted into the cerebellum which served as a reference. Hippocampal θ rhythm was evoked via a 6-s electrical stimulation train (20-160 μA, 0.3-ms pulse duration, 250 Hz) delivered to the NPO at a rate of 0.01 trains/s with a Grass S88 stimulator and PSIU6 stimulus isolation unit (Grass Medical Instruments, Quincy, Mass.). EEG was recorded at a rate of 1000 Hz using Ponemah (Version 5.2) software and stored for off-line analysis using NeuroScore™ (Version 3.0). Baseline amplitude level was achieved by using the current required to elicit θ rhythm to 50% of the maximal amplitude under control conditions.
Power in the θ rhythm frequency in the stimulation period during the 30 min baseline period was calculated and the percent changes in these measures post treatment were calculated. […] Statistical significance was considered at a p value less than 0.05.

[5] = test system: acetylcholine levels in ventral hippocampus of male Wistar rats; test: Acetylcholine modulation in ventral hippocampus (microdialysis), combination treatment; format: in vivo, rat; details: s.c. alone
From the text: However, there were minor modifications in the microdialysis experiment.
After surgical recovery of 4-5 days, male Wistar rats were connected to dual quartz lined two-channel liquid swivel (Instech, UK) on a counter balance lever arm, which allowed unrestricted movements of the animal. Sixteen hours before start of study, a pre-equilibrated microdialysis probe (4 mm dialysis membrane) was inserted into the ventral hippocampus through the guide cannula. On the day of study, the probe was perfused with aCSF at a flow rate of 1.5 μL/min and a stabilization period of 2 h was maintained. […] Dialysates were stored below −50° C. prior to analysis.
All microdialysis data for acetylcholine was plotted as percent change from mean dialysate basal concentrations with 100% defined as the average of five pre-dose values. […] Statistical significance was considered at a p value less than 0.05. Incorrect probe placement was considered as criteria to reject the data from animal.

COc1ccc2c(c1)c(CN1CCN(C)CC1)cn2S(=O)(=O)c1ccccc1Br [Compound 1, 1-[(2-Bromophenyl)sulfonyl]-5-methoxy-3-[(4-methyl-1-piperazinyl)methyl]-1H-indole dimesylate monohydrate]
increase in hippocampal acetylcholine levels ([1]; 3 mg/kg, p.o., ventral hippocampus, male Wistar rats): about 172%
Area under the curve value of acetylcholine change vs vehicle treatment ([1]; compound 1 p.o., FIG. 2): significantly higher
difference in plasma exposures administered alone or in combination [2]: No significant difference

COc1ccc2c(c1)c(CN1CCN(C)CC1)cn2S(=O)(=O)c1ccc(F)cc1 [Compound 2, 1-[(4-Fluorophenyl)sulfonyl]-5-methoxy-3-[(4-methyl-1-piperazinyl)methyl]-1H-indole dihydrochloride]
Ki [3]: > 10 µM

COc1cc2c(cc1OC)C(=O)C(CC1CCN(Cc3ccccc3)CC1)C2 (stereo not shown) [Donepezil]
hippocampal theta power [4]: moderate increase
maximum hippocampal acetylcholine levels ([5]; donepezil 1 mg/kg): 703±134 % of basal levels

CCN(C)C(=O)Oc1cccc([C@H](C)N(C)C)c1 [rivastigmine, Rivastigmine]
increase in hippocampal acetylcholine level ([5]; rivastigmine 0.5 mg/kg): about 3 fold
